Reference: patent US20160235752A1, “COMPOSITIONS, METHODS OF USE, AND METHODS OF TREATMENT” (THE UNIVERSITY OF NEW ORLEANS, priority 2013, published 2016)

Key:
[1] = system: Candida glabrata (ATCC no. 48435); assay: MIC determination by broth microdilution (NCCLS), visual scoring; assay type: cell-based
Description: The antifungal activity of the 2,4,6-pyrimidinetrione analogs shown in Schemes 2-6 were evaluated in vitro using Candida albicans (ATCC no. 10231) and Candida glabrata (ATCC no 48435). All assays were done in accordance with NCCLS reference documents^29. The results of these screenings are summarized in Tables 1-9 as the minimal inhibitory concentrations that inhibited more than 80% fungal growth as compared to the positive controls in 1% DMSO and RPMI media. All MIC screens were done using a visual scoring method as opposed to spectroscopic methods of analysis, due to the physical properties of many of the compounds altering their absorbance spectra relative to the positive, negative and drug controls.
None of the compounds tested over the course of these studies were soluble in water and DMSO was used to dilute each compound tested. Master stock concentrations of all tested compounds were prepared to ensure that the maximum final concentration of DMSO was 1% or less. Subsequent 2-fold serial dilutions were made using sterile water to a final concentration of 1280-5.00 μg/ml. A final 10-fold dilution of each drug was made by aliquotting 0.1 mL of each drug dilution into 0.9 mL of fungal suspension in RPMI 1640 media with 10 mM HEPES buffer added (see methodology below), giving final concentrations tested in the range of 128-0.5 μg/ml.
(§1) Antifungal susceptibility studies and minimal inhibitory concentrations (MIC) values for Candida albicans (ATCC no. 10231) and Candida glabrata (ATCC no. 48435) were determined by the broth microdilution technique in accordance with NCCLS reference documents. Microdilution panels ranged from 0.5 to 128 μg/mL. All organisms were subcultured on Sabouraud agar and passaged to ensure purity and viability. The initiating inocula were prepared by picking 5-7 isolated colonies ˜1 mm in diameter from freshly prepared YM agar plates. Colonies were resuspended in sterile water, vortexed and the cell density was adjusted spectrophotometrically to the transmittance of a 0.5 McFarland standard at a wavelength of 530 nm, to yield a stock suspension of 1×10^6-5×10^6 cells/mL. The stock was allowed to hydrate for 30 minutes at room temperature. A working suspension was then made by diluting the stock 1:50 with RPMI 1640 media containing HEPES buffer. The working suspension was used for all assays. The plates were incubated at 35° C. for 48-72 hours in a humid atmosphere. Growth was scored visually. MIC values are defined as the lowest concentration of agent that prevents any discernible growth, ˜80% reduction of growth, as compared with drug-free control wells. All assays were run in parallel using either fluconazole or amphotericin B at the NCCLS recommended concentrations^29 as a drug control (Sigma-Aldrich).

[2] = system: Candida albicans (ATCC no. 10231); assay: as above; assay type: cell-based
Description: The antifungal activity of the 2,4,6-pyrimidinetrione analogs shown in Schemes 2-6 were evaluated in vitro using Candida albicans (ATCC no. 10231) and Candida glabrata (ATCC no 48435). All assays were done in accordance with NCCLS reference documents^29.
Master stock concentrations of all tested compounds were prepared to ensure that the maximum final concentration of DMSO was 1% or less. Subsequent 2-fold serial dilutions were made using sterile water to a final concentration of 1280-5.00 μg/ml. A final 10-fold dilution of each drug was made by aliquotting 0.1 mL of each drug dilution into 0.9 mL of fungal suspension in RPMI 1640 media with 10 mM HEPES buffer added (see methodology below), giving final concentrations tested in the range of 128-0.5 μg/ml.
as §1

[3] = Table 1, 5-Acyl-2,4,6-pyrimidinetriones, >80% growth inhibition, RPMI, 1% DMSO
[4] = Table 2, 5-Arylidene-2,4,6-pyrimidinetriones
[5] = Table 5, Schiff Bases of 5-acylpyrimidinetriones
[6] = Table 8, N-Acylhydrazones of 5-Acylpyrimidinetriones
[7] = Table 7, Phenylhydrazones of 5-Acylpyrimidinetriones

CN1C(=O)C(C(=O)c2cccc([N+](=O)[O-])c2)C(=O)N(C)C1=O [BA5]
MIC80 C. glabrata [1, 3]: — (none of the 5-acyl-2,4,6-pyrimidinetriones, 5-alkylated pyrimidinetriones or the 5,5-dialkylated pyrimidinetriones showed antifungal activity through 125 μg/mL) | MIC80 C. albicans [2, 3]: — (none of the 5-acyl-2,4,6-pyrimidinetriones, 5-alkylated pyrimidinetriones or the 5,5-dialkylated pyrimidinetriones showed antifungal activity through 125 μg/mL)

COc1ccc(C=C2C(=O)N(C)C(=O)N(C)C2=O)cc1 [BA50]
MIC80 C. glabrata [1, 4]: — (none of the 5-acyl-2,4,6-pyrimidinetriones, 5-alkylated pyrimidinetriones or the 5,5-dialkylated pyrimidinetriones showed antifungal activity through 125 μg/mL) | MIC80 C. albicans [2, 4]: — (none of the 5-acyl-2,4,6-pyrimidinetriones, 5-alkylated pyrimidinetriones or the 5,5-dialkylated pyrimidinetriones showed antifungal activity through 125 μg/mL)

CN1C(=O)C(C=Nc2ccc(O)cc2)C(=O)N(C)C1=O [BA79]
MIC80 C. glabrata [1, 5]: — (none of the 5-acyl-2,4,6-pyrimidinetriones, 5-alkylated pyrimidinetriones or the 5,5-dialkylated pyrimidinetriones showed antifungal activity through 125 μg/mL) | MIC80 C. albicans [2, 5]: — (none of the 5-acyl-2,4,6-pyrimidinetriones, 5-alkylated pyrimidinetriones or the 5,5-dialkylated pyrimidinetriones showed antifungal activity through 125 μg/mL)

CC(=Nc1ccccc1)C1C(=O)N(C)C(=O)N(C)C1=O [BA91]
MIC80 C. glabrata [1, 5]: — (none of the 5-acyl-2,4,6-pyrimidinetriones, 5-alkylated pyrimidinetriones or the 5,5-dialkylated pyrimidinetriones showed antifungal activity through 125 μg/mL) | MIC80 C. albicans [2, 5]: — (none of the 5-acyl-2,4,6-pyrimidinetriones, 5-alkylated pyrimidinetriones or the 5,5-dialkylated pyrimidinetriones showed antifungal activity through 125 μg/mL)

COC(=O)NN=C(C)C1C(=O)N(C)C(=O)N(C)C1=O [BA75]
MIC80 C. glabrata [1, 6]: — (none of the 5-acyl-2,4,6-pyrimidinetriones, 5-alkylated pyrimidinetriones or the 5,5-dialkylated pyrimidinetriones showed antifungal activity through 125 μg/mL) | MIC80 C. albicans [2, 6]: — (none of the 5-acyl-2,4,6-pyrimidinetriones, 5-alkylated pyrimidinetriones or the 5,5-dialkylated pyrimidinetriones showed antifungal activity through 125 μg/mL)

COC(=O)NN=CC1C(=O)N(C)C(=O)N(C)C1=O [BA76]
MIC80 C. glabrata [1, 6]: — (none of the 5-acyl-2,4,6-pyrimidinetriones, 5-alkylated pyrimidinetriones or the 5,5-dialkylated pyrimidinetriones showed antifungal activity through 125 μg/mL) | MIC80 C. albicans [2, 6]: — (none of the 5-acyl-2,4,6-pyrimidinetriones, 5-alkylated pyrimidinetriones or the 5,5-dialkylated pyrimidinetriones showed antifungal activity through 125 μg/mL)

O=C1NC(=O)C(C(=O)c2ccc([N+](=O)[O-])cc2)C(=O)N1 [BA6]
MIC80 C. glabrata [1, 3]: — (none of the 5-acyl-2,4,6-pyrimidinetriones, 5-alkylated pyrimidinetriones or the 5,5-dialkylated pyrimidinetriones showed antifungal activity through 125 μg/mL) | MIC80 C. albicans [2, 3]: — (none of the 5-acyl-2,4,6-pyrimidinetriones, 5-alkylated pyrimidinetriones or the 5,5-dialkylated pyrimidinetriones showed antifungal activity through 125 μg/mL)

O=C1NC(=O)N(c2ccccc2)C(=O)C1C(=NNc1ccc([N+](=O)[O-])cc1[N+](=O)[O-])c1ccccc1 (stereo not drawn) [BA32]
MIC80 C. glabrata [1, 7]: — (none of the 5-acyl-2,4,6-pyrimidinetriones, 5-alkylated pyrimidinetriones or the 5,5-dialkylated pyrimidinetriones showed antifungal activity through 125 μg/mL) | MIC80 C. albicans [2, 7]: — (none of the 5-acyl-2,4,6-pyrimidinetriones, 5-alkylated pyrimidinetriones or the 5,5-dialkylated pyrimidinetriones showed antifungal activity through 125 μg/mL)

O=C1NC(=O)C(C=Nc2ccc(O)cc2)C(=O)N1 [BA81]
MIC80 C. glabrata [1, 5]: — (none of the 5-acyl-2,4,6-pyrimidinetriones, 5-alkylated pyrimidinetriones or the 5,5-dialkylated pyrimidinetriones showed antifungal activity through 125 μg/mL) | MIC80 C. albicans [2, 5]: — (none of the 5-acyl-2,4,6-pyrimidinetriones, 5-alkylated pyrimidinetriones or the 5,5-dialkylated pyrimidinetriones showed antifungal activity through 125 μg/mL)
